Measurements: US20020137929A1, “1 - (3-heterocyclylphenyl) isothiourea, -isourea, -guanidine and -amidine herbicidal agents” (Intellectual Property Department, BASF Aktiengesellschaft, priority 1998, published 2002)

Key:
CYPSE (Flatsedge) [1] = test: Postemergence weed control under flooded paddy conditions; assay type: in vivo, Cyperus serotinus; conditions: postemergence weeds, 3-4 weeks after treatment
How it was run: (§1)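 Containers holding 3–5 cm weeds and rice at 1.5–2.5 leaves are flooded to 1.5–3 cm above soil. Compound in 50/50 v/v aqueous/acetone is then added directly to the water, about 0.0313–0.500 kg/ha. Plants are kept in the greenhouse and rated 0–9 visually at 3–4 weeks.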

GALAP (Galium) = test: Postemergence herbicidal evaluation; assay type: in vivo, Galium aparine; conditions: postemergence
How it was run: (§2)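 Two-week-old seedlings sprayed with compound in 50/50 acetone/water plus 0.5% TWEEN 20, at about 0.0156 to 0.500 kg/ha, nozzle at 40 psi. Kept in greenhouse; rated visually 4-5 weeks after treatment on a 0-9 scale versus control, repeat tests averaged.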

ZEAMX (Corn, Field) [2] = test: Postemergence herbicidal evaluation; assay type: in vivo, Zea mays; conditions: postemergence
How it was run: as §2

[3] = system: ECHORC (Watergrass (Calif.)); test: Preemergence weed control under flooded paddy conditions; assay type: in vivo, Echinochloa oryzoides; conditions: rated 3-4 weeks after treatment
How it was run: (§3)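 Silt loam, seeds in top 0.5 cm; flood held 1.5-3 cm; test cpd as acetone/water 50/50 into flood water, ~0.0313-0.500 kg/ha a.i.; greenhouse 3-4 wk; visual 0-9 score vs control.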

ORYSAT (Rice, Tebonnet) = test: Preemergence herbicidal evaluation; assay type: in vivo, Oryza sativa, (L.) Tebonnet; conditions: rated 4-5 weeks after treatment
How it was run: (§4)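 In this greenhouse assay, monocot and dicot seeds are planted in soil and treated prior to emergence with an aqueous acetone spray (about 0.0156-0.500 kg/ha). Plants are assessed visually against control on a 0-9 scale after 4-5 weeks.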

[4] = system: TRZAWR (Wheat, Winter, cv Riband); test: Preemergence herbicidal evaluation; assay type: in vivo, Triticum aestivum; conditions: rated 4-5 weeks after treatment
How it was run: as §4

[5] = system: ECHORC (Watergrass (Calif.)); test: Postemergence weed control under flooded paddy conditions; assay type: in vivo, Echinochloa oryzoides; conditions: postemergence weeds, 3-4 weeks after treatment
How it was run: as §1

AMBEL (Ragweed, Common) = test: Preemergence herbicidal evaluation; assay type: in vivo, Ambrosia artemisifolia; conditions: rated 4-5 weeks after treatment
How it was run: as §4

ZEAMX (Corn, Field) [6] = test: Preemergence herbicidal evaluation; assay type: in vivo, Zea mays; conditions: rated 4-5 weeks after treatment
How it was run: as §4

CYPIR (Rice Flatsedge) = test: Preemergence weed control under flooded paddy conditions; assay type: in vivo, Cyperus iria; conditions: rated 3-4 weeks after treatment
How it was run: as §3

CYPSE (Flatsedge) [7] = test: as above; assay type: in vivo, Cyperus serotinus; conditions: rated 3-4 weeks after treatment
How it was run: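 Seeds or propagules sown in top 0.5 cm of silt loam soil, flooded 1.5 to 3 cm above surface throughout. Compound in 50/50 v/v aqueous/acetone pipetted into flood water at about 0.0313 to 0.500 kg/ha. Visual 0-9 rating versus control after three to four weeks in greenhouse.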

[8] = system: IPOHE (Morningglory, Ivyleaf); test: Preemergence herbicidal evaluation; assay type: in vivo, Ipomoea hederacea; conditions: rated 4-5 weeks after treatment
How it was run: as §4

CASOB (Sicklepod) = test: Postemergence herbicidal evaluation; assay type: in vivo, Cassia obtusifolia; conditions: postemergence
How it was run: as §2

[9] = system: CHEAL (Lambsquarters, Common); test: Preemergence herbicidal evaluation; assay type: in vivo, Chenopodium album; conditions: rated 4-5 weeks after treatment
How it was run: as §4

SMILES: CCOC(=O)CN1C(=O)C(CC)SC1=Nc1cc(-n2c(=O)cc(C(F)(F)F)n(C)c2=O)c(F)cc1Cl (stereo not shown) [Compound 13, Ethyl 2-{{2-chloro-5-[3,6-dihydro-3-methyl-2,6-dioxo-4-(trifluoromethyl)-1(2H)-pyrimidinyl]-4-fluorophenyl}imino}-5-ethyl-4-oxo-3-thiazolidineacetate]
- Herbicidal rating CYPSE (CYPSE (Flatsedge) [1]; rate 0.0313 kg/ha): 0.0
- Herbicidal rating CYPSE (CYPSE (Flatsedge) [1]; rate 0.0625 kg/ha): 0.0
- Herbicidal rating CYPSE (CYPSE (Flatsedge) [1]; rate 0.1250 kg/ha): 0.0
- Herbicidal rating CYPSE (CYPSE (Flatsedge) [1]; rate 0.2500 kg/ha): 0.0
- GALAP herbicidal rating (GALAP (Galium); rate 0.0156 kg/ha): 3.0
- GALAP herbicidal rating (GALAP (Galium); rate 0.0313 kg/ha): 3.0
- GALAP herbicidal rating (GALAP (Galium); rate 0.0625 kg/ha): 5.0
- GALAP herbicidal rating (GALAP (Galium); rate 0.1250 kg/ha): 5.0
- ZEAMX herbicidal rating (ZEAMX (Corn, Field) [2]; rate 0.0156 kg/ha): 7.0
- ZEAMX herbicidal rating (ZEAMX (Corn, Field) [2]; rate 0.0313 kg/ha): 7.0
- ZEAMX herbicidal rating (ZEAMX (Corn, Field) [2]; rate 0.0625 kg/ha): 7.5
- ZEAMX herbicidal rating (ZEAMX (Corn, Field) [2]; rate 0.1250 kg/ha): 8.0
- Herbicidal rating ECHORC ([3]; 0.0156 kg/ha): 3.5
- Herbicidal rating ECHORC ([3]; 0.0313 kg/ha): 5.5
- Herbicidal rating ECHORC ([3]; 0.0625 kg/ha): 7.0
- Herbicidal rating ECHORC ([3]; 0.1250 kg/ha): 8.0
- Herbicidal rating ECHORC ([3]; 0.2500 kg/ha): 9.0
- ORYSAT preemergence herbicidal rating (ORYSAT (Rice, Tebonnet); rate 0.0156 kg/ha): 0.0
- ORYSAT preemergence herbicidal rating (ORYSAT (Rice, Tebonnet); rate 0.0313 kg/ha): 0.0
- ORYSAT preemergence herbicidal rating (ORYSAT (Rice, Tebonnet); rate 0.0625 kg/ha): 0.0
- ORYSAT preemergence herbicidal rating (ORYSAT (Rice, Tebonnet); rate 0.1250 kg/ha): 3.0
- ORYSAT preemergence herbicidal rating (ORYSAT (Rice, Tebonnet); rate 0.2500 kg/ha): 4.0
- TRZAWR preemergence herbicidal rating ([4]; rate 0.0313 kg/ha): 1.0
- TRZAWR preemergence herbicidal rating ([4]; rate 0.0625 kg/ha): 1.0
- TRZAWR preemergence herbicidal rating ([4]; rate 0.1250 kg/ha): 4.0
- TRZAWR preemergence herbicidal rating ([4]; rate 0.2500 kg/ha): 6.0
- Herbicidal rating ECHORC ([5]; rate 0.0313 kg/ha): 5.5
- Herbicidal rating ECHORC ([5]; rate 0.0625 kg/ha): 7.0
- Herbicidal rating ECHORC ([5]; rate 0.1250 kg/ha): 8.0
- Herbicidal rating ECHORC ([5]; rate 0.2500 kg/ha): 9.0
- AMBEL preemergence herbicidal rating (AMBEL (Ragweed, Common); rate 0.0156 kg/ha): 0.0
- AMBEL preemergence herbicidal rating (AMBEL (Ragweed, Common); rate 0.0313 kg/ha): 2.0
- AMBEL preemergence herbicidal rating (AMBEL (Ragweed, Common); rate 0.0625 kg/ha): 6.0
- AMBEL preemergence herbicidal rating (AMBEL (Ragweed, Common); rate 0.1250 kg/ha): 9.0
- AMBEL preemergence herbicidal rating (AMBEL (Ragweed, Common); rate 0.2500 kg/ha): 9.0
- ZEAMX preemergence herbicidal rating (ZEAMX (Corn, Field) [6]; rate 0.0156 kg/ha): 0.0
- ZEAMX preemergence herbicidal rating (ZEAMX (Corn, Field) [6]; rate 0.0313 kg/ha): 2.0
- ZEAMX preemergence herbicidal rating (ZEAMX (Corn, Field) [6]; rate 0.0625 kg/ha): 4.0
- ZEAMX preemergence herbicidal rating (ZEAMX (Corn, Field) [6]; rate 0.1250 kg/ha): 5.0
- ZEAMX preemergence herbicidal rating (ZEAMX (Corn, Field) [6]; rate 0.2500 kg/ha): 7.0
- Herbicidal rating CYPIR (CYPIR (Rice Flatsedge); 0.0156 kg/ha): 0.0
- Herbicidal rating CYPIR (CYPIR (Rice Flatsedge); 0.0313 kg/ha): 0.0
- Herbicidal rating CYPIR (CYPIR (Rice Flatsedge); 0.0625 kg/ha): 0.0
- Herbicidal rating CYPIR (CYPIR (Rice Flatsedge); 0.1250 kg/ha): 0.5
- Herbicidal rating CYPIR (CYPIR (Rice Flatsedge); 0.2500 kg/ha): 1.0
- Herbicidal rating CYPSE (CYPSE (Flatsedge) [7]; 0.0156 kg/ha): 0.0
- Herbicidal rating CYPSE (CYPSE (Flatsedge) [7]; 0.0313 kg/ha): 0.0
- Herbicidal rating CYPSE (CYPSE (Flatsedge) [7]; 0.0625 kg/ha): 0.0
- Herbicidal rating CYPSE (CYPSE (Flatsedge) [7]; 0.1250 kg/ha): 0.0
- Herbicidal rating CYPSE (CYPSE (Flatsedge) [7]; 0.2500 kg/ha): 0.0
- IPOHE preemergence herbicidal rating ([8]; rate 0.0156 kg/ha): 2.5
- IPOHE preemergence herbicidal rating ([8]; rate 0.0313 kg/ha): 3.5
- IPOHE preemergence herbicidal rating ([8]; rate 0.0625 kg/ha): 9.0
- IPOHE preemergence herbicidal rating ([8]; rate 0.1250 kg/ha): 8.0
- IPOHE preemergence herbicidal rating ([8]; rate 0.2500 kg/ha): 9.0
- CASOB herbicidal rating (CASOB (Sicklepod); rate 0.0156 kg/ha): 0.0
- CASOB herbicidal rating (CASOB (Sicklepod); rate 0.0313 kg/ha): 0.0
- CASOB herbicidal rating (CASOB (Sicklepod); rate 0.0625 kg/ha): 3.0
- CASOB herbicidal rating (CASOB (Sicklepod); rate 0.1250 kg/ha): 3.0
- CHEAL preemergence herbicidal rating ([9]; rate 0.0156 kg/ha): 9.0
- CHEAL preemergence herbicidal rating ([9]; rate 0.0313 kg/ha): 9.0
- CHEAL preemergence herbicidal rating ([9]; rate 0.0625 kg/ha): 9.0
- CHEAL preemergence herbicidal rating ([9]; rate 0.1250 kg/ha): 9.0
- CHEAL preemergence herbicidal rating ([9]; rate 0.2500 kg/ha): 9.0
